Reference: patent US10829473B2, “Modulators of the cystic fibrosis transmembrane conductance regulator protein and methods of use” (AbbVie Overseas S.Á.R.L., priority 2017, dated 2020)
Read-outs that look alike come from different tables or passages of the source. Marks after values point to notes of the source that are not given here.

Biological target: T1, F508delCFTR (Homo sapiens, UniProt P13569, DEL508-508)
T1 construct: expressed in transfected cells; host or cells: CFBE41o- human lung derived epithelial cells (CFBE41o-F508delCFTR-HRP), doxycycline-inducible
T1 sequence (P13569 with tags, fused parts or gaps DEL508-508): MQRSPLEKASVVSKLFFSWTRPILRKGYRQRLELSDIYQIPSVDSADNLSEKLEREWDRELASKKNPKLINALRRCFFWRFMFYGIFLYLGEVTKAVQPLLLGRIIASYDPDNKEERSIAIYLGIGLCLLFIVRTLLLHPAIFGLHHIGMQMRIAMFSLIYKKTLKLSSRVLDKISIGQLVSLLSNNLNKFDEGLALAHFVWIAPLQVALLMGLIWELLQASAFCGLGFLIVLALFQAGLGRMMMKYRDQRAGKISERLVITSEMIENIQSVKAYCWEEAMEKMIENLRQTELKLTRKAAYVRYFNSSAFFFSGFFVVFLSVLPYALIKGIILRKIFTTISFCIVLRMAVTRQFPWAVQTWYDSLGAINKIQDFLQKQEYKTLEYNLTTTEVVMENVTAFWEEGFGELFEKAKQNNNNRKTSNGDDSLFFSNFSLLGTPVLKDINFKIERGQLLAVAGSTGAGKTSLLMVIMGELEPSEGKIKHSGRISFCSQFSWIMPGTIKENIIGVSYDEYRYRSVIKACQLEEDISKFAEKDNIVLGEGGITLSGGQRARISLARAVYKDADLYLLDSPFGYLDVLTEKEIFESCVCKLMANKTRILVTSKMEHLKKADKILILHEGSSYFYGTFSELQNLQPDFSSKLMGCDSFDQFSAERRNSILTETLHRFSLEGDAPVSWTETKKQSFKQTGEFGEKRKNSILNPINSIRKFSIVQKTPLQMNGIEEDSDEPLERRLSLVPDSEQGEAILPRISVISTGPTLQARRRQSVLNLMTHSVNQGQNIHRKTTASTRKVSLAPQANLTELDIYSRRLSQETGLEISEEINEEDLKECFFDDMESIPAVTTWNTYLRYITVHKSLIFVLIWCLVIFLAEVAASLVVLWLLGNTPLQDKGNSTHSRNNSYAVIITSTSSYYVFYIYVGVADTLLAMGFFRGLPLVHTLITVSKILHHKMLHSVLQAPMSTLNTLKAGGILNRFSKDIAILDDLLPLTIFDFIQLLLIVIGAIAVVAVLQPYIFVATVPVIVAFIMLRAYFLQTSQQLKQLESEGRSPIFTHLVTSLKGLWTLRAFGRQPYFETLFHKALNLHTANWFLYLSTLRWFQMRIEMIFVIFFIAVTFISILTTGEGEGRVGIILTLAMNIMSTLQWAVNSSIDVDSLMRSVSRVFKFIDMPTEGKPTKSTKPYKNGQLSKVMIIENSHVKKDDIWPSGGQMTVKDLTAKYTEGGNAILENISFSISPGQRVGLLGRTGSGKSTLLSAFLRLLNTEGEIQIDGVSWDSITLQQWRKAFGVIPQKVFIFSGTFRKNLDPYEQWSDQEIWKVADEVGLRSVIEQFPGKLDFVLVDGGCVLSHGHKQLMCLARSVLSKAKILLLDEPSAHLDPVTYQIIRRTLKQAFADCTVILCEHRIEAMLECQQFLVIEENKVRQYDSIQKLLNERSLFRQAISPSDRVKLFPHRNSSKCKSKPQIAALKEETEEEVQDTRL
Assay: Cell Surface Expression-Horse Radish Peroxidase (CSE-HRP) Assay;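 on EC50 (with co-corrector): co-corrector chromenyl benzoic acid corrector at 2 or 3 µM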;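 on Maximum % activity (without co-corrector): % of on-plate positive control chromenyl benzoic acid corrector at 2 or 3 µM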
Type: cell-based
Settings: for Maximum % activity (with co-corrector) / Emax: maximum at any tested concentration; for Emax: read-out: Maximum % activity (without co-corrector)
Outline: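 Corrector compounds were given as 8-point 3-fold series from 20 or 30 μM, with or without a 2 μM co-corrector, for 18-24 h at 33 °C. Surface HRP was read by luminol luminescence as % of positive control; variable-Hill-slope sigmoidal fitting gave EC50 from triplicate plates.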

[1] = test compound with co-corrector
[2] = test compound with co-corrector, read-out: EC50 (with co-corrector)
[3] = test compound without co-corrector
[4] = test compound without co-corrector, read-out: EC50 (without co-corrector)
[5] = test compound alone, without co-corrector, read-out: EC50 (without co-corrector)
[6] = with co-corrector, read-out: EC50 (with co-corrector)

| Maximum % activity (with co-corrector) [1] | EC50 [2] | EC50 (without co-corrector) [3] | Emax [3] | EC50 [4] | EC50 (with co-corrector) [1] | EC50 [5] | Maximum % activity (with co-corrector) (with co-corrector) | EC50 [6] | Emax (without co-corrector) | SMILES |
| --- | --- | --- | --- | --- | --- | --- | --- | --- | --- | --- |
| +++ (≥350) | 3 to 10 µM | ++^a | 50 to 150% | – | – | – | – | – | – | COc1ccc(C2(C(=O)NS(=O)(=O)c3cccc4ccccc34)CC2)c(C)n1 [GII-19, 1-(6-methoxy-2-methylpyridin-3-yl)-N-(naphthalene-1-sulfonyl)cyclopropane-1-carboxamide] |
| +++ (≥350) | < 3 µM | – | > 150% | 3 to 10 µM | – | – | – | – | – | Cc1ccc2c(S(=O)(=O)NC(=O)C3(c4cc(C5CC5)cnc4N4CCCC4)CC3)cccc2n1 [Example GI-33, 1-[5-cyclopropyl-2-(pyrrolidin-1-yl)pyridin-3-yl]-N-(2-methylquinoline-5-sulfonyl)cyclopropane-1-carboxamide] |
| ++ (≥150 and <350) | – | ++^a | 50 to 150% | – | ++^a | – | – | – | – | CCc1ccncc1C1(C(=O)NS(=O)(=O)c2cccc3ccccc23)CC1 [GII-20, 1-(4-ethylpyridin-3-yl)-N-(naphthalene-1-sulfonyl)cyclopropane-1-carboxamide] |
| ++ (≥150 and <350) | – | ++^a | 50 to 150% | – | ++^a | – | – | – | – | COc1cc(C2(C(=O)NS(=O)(=O)c3cccc4nc(C)ccc34)CC2)c(OC(F)F)cn1 [GIII-22] |
| – | – | – | – | – | – | 3 to 10 µM | +++ (≥350) | < 3 µM | > 150% | COc1ncc(C2CCC2)c(C)c1C1(C(=O)NS(=O)(=O)c2cccc3nc(C)ccc23)CC1 [II-33] |
| – | – | – | – | – | – | 3 to 10 µM | +++ (≥350) | 3 to 10 µM | > 150% | COc1ccc(C)nc1C1(C(=O)NS(=O)(=O)c2cccc3ccccc23)CC1 [Example III-125, 1-(3-methoxy-6-methylpyridin-2-yl)-N-(naphthalene-1-sulfonyl)cyclopropane-1-carboxamide] |
| – | – | – | – | – | – | < 3 µM | +++ (≥350) | < 3 µM | > 150% | COc1ncc(C2CCC2)cc1C1(C(=O)NS(=O)(=O)c2cccn3nccc23)CC1 [Example I-19, 1-(5-cyclobutyl-2-methoxypyridin-3-yl)-N-(pyrazolo[1,5-a]pyridine-4-sulfonyl)cyclopropane-1-carboxamide] |
| +++ (≥350) | < 3 µM | – | > 150% | 3 to 10 µM | – | – | – | – | – | COc1cnc(OC(C)C)c(C2(C(=O)NS(=O)(=O)c3cccc4ncccc34)CC2)c1 [Example GI-74, 1-{5-methoxy-2-[(propan-2-yl)oxy]pyridin-3-yl}-N-(quinoline-5-sulfonyl)cyclopropane-1-carboxamide] |
| – | – | – | – | – | – | < 3 µM | +++ (≥350) | < 3 µM | > 150% | COCC(C)(C)c1ccc(OC)c(C2(C(=O)NS(=O)(=O)c3cccc4nc(C)ccc34)CC2)c1 [II-113] |
| – | – | – | – | – | – | 3 to 10 µM | +++ (≥350) | < 3 µM | > 150% | O=C(NS(=O)(=O)c1cccc2ncccc12)C1(c2cc(C3CCC3)cnc2N2CCCC2)CC1 [Example GI-28, 1-[5-cyclobutyl-2-(pyrrolidin-1-yl)pyridin-3-yl]-N-(quinoline-5-sulfonyl)cyclopropane-1-carboxamide] |
| – | – | – | – | – | – | 3 to 10 µM | +++ (≥350) | < 3 µM | > 150% | COc1ccc(C(C)C)cc1C1(C(=O)NS(=O)(=O)c2cccc3c2CCCN3)CCC1 [II-20] |
| – | – | – | – | – | – | > 10 µM | + (<150) | > 10 µM | < 50% | O=C(NS(=O)(=O)c1cc([N+](=O)[O-])ccc1Cl)C1(c2cccc(Cl)c2)CC1 [Example III-55, N-(2-chloro-5-nitrobenzene-1-sulfonyl)-1-(3-chlorophenyl)cyclopropane-1-carboxamide] |
| +++ (≥350) | < 3 µM | – | > 150% | < 3 µM | – | – | – | – | – | CCc1cnc(OCC2CC2)c(C2(C(=O)NS(=O)(=O)c3cccc4[nH]ccc34)CC2)c1 [Example GI-108, 1-[2-(cyclopropylmethoxy)-5-ethylpyridin-3-yl]-N-(1H-indole-4-sulfonyl)cyclopropane-1-carboxamide] |
| – | – | – | – | – | – | > 10 µM | + (<150) | 3 to 10 µM | < 50% | O=C(NS(=O)(=O)C1CC1)C1(c2ccc(Cl)cc2Cl)CC1 [Example III-28, N-(cyclopropanesulfonyl)-1-(2,4-dichlorophenyl)cyclopropane-1-carboxamide] |
| +++ (≥350) | < 3 µM | – | > 150% | < 3 µM | – | – | – | – | – | CC(C)OC1CCN(c2ncc(C3CCC3)cc2C2(C(=O)NS(=O)(=O)c3cccc4ncccc34)CC2)CC1 [Example GI-105, 1-(5-cyclobutyl-2-{4-[(propan-2-yl)oxy]piperidin-1-yl}pyridin-3-yl)-N-(quinoline-5-sulfonyl)cyclopropane-1-carboxamide] |
| – | – | – | – | – | – | < 3 µM | ++ (≥150 and <350) | < 3 µM | 50 to 150% | COc1ccc(C)nc1C1(C(=O)NS(=O)(=O)c2cccc3nc(C)ccc23)CC1 [Example III-126, 1-(3-methoxy-6-methylpyridin-2-yl)-N-(2-methylquinoline-5-sulfonyl)cyclopropane-1-carboxamide] |
| – | – | – | – | – | – | < 3 µM | +++ (≥350) | < 3 µM | > 150% | CCCc1nc(C(F)(F)F)ccc1C1(C(=O)NS(=O)(=O)c2cccc3c2CCCN3)CC1 [Example GI-8, 1-[2-propyl-6-(trifluoromethyl)pyridin-3-yl]-N-(1,2,3,4-tetrahydroquinoline-5-sulfonyl)cyclopropane-1-carboxamide] |
| +++ (≥350) | < 3 µM | – | > 150% | 3 to 10 µM | – | – | – | – | – | CCc1cnc(N2CCC(OC(C)C)CC2)c(C2(C(=O)NS(=O)(=O)c3cccc4[nH]ccc34)CC2)c1 [Example GI-102, 1-(5-ethyl-2-{4-[(propan-2-yl)oxy]piperidin-1-yl}pyridin-3-yl)-N-(1H-indole-4-sulfonyl)cyclopropane-1-carboxamide] |
| +++ (≥350) | < 3 µM | – | > 150% | 3 to 10 µM | – | – | – | – | – | COc1cc(C2(C(=O)NS(=O)(=O)c3cccc4ncccc34)CC2)c(OCC2CC2)cn1 [Example GI-91, 1-[5-(cyclopropylmethoxy)-2-methoxypyridin-4-yl]-N-(quinoline-5-sulfonyl)cyclopropane-1-carboxamide] |
| +++ (≥350) | < 3 µM | – | > 150% | 3 to 10 µM | – | – | – | – | – | O=C(NS(=O)(=O)c1cccc2[nH]ccc12)C1(c2cc(C3CC3)cnc2N2CCCC2)CC1 [Example GI-34, 1-[5-cyclopropyl-2-(pyrrolidin-1-yl)pyridin-3-yl]-N-(1H-indole-4-sulfonyl)cyclopropane-1-carboxamide] |
| – | – | – | – | – | – | 3 to 10 µM | +++ (≥350) | 3 to 10 µM | > 150% | COc1cc(C2(C(=O)NS(=O)(=O)c3cccc4ccccc34)CC2)ccc1C [II-2] |
